Measured values published in article PMC12647599 (Nature Communications, 2025).

Assays:
[1] = target: T1, CrHYC3R (THAS3) (Catharanthus roseus, UniProt A0A1B1FHP1); assay: LC-MS/MS relative activity, yeast lysate; type: biochemical; settings: 1 mM NADPH, 20 mM Tris-HCl pH 7.5, 30 °C, 4 h
T1 sequence (A0A1B1FHP1 1-377): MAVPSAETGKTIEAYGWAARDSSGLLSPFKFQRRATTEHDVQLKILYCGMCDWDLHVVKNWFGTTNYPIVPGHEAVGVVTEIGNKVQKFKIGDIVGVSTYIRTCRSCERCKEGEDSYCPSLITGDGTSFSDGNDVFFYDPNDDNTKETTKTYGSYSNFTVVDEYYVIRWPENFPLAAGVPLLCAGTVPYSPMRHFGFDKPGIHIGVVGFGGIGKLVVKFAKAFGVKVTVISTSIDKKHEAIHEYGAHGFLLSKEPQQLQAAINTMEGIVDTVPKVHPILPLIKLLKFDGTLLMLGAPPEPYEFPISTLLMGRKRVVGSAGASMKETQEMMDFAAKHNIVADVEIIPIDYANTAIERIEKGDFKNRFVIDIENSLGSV

[2] = system: RtHYC3O; assay: LC-MS/MS product assay, non-linear regression; type: biochemical, Rauvolfia tetraphylla; settings: 20 mM Tris-HCl pH 7.5, 30 °C, 10 min; air O2; FAD enzyme

Km [2] [µM] | Structure (SMILES) | LC-MS/MS relative activity, yeast lysate [1]
– | COC(=O)[C@@H]1[C@H]2CC3=[N+](CCc4c3[nH]c3ccccc43)C[C@@H]2CC[C@@H]1O [3-dehydro-yohimbine] | efficiently reduced 3-dehydro intermediates of yohimbine and heteroyohimbine types
1.15 | COC(=O)[C@H]1[C@H]2C[C@H]3c4[nH]c5ccccc5c4CCN3C[C@H]2CC[C@@H]1O [rauwolscine] | –
